Molecules are shown by their SMILES.

Series [1] in a line: in vivo. As to conditions: rat, 1 mg/kg.
Series [2] can be described thus: in vivo. As to conditions: rat, po, 1 mg/kg.
Series [3] can be described thus: in vivo. As to conditions: rat, 1 mg/kg. The source holds these as a separate data set.

For the compound `O=C(/C=C/c1ccc(Sc2cccc(N[C@H]3CC[C@@H](C(=O)O)CC3)c2)c(C(F)(F)F)c1C(F)(F)F)N1CCOCC1`, the half-life in “in vivo [1]” was 1.8 h. Also, in the series “in vivo [2]”, the bioavailability came out at 13%. The clearance in the series “in vivo [3]” is 8.3 mL/min/kg.
For `Nc1cccc(Sc2ccc(/C=C/C(=O)N3CCOCC3)c(C(F)(F)F)c2C(F)(F)F)c1`, in “in vivo [1]”, the half-life is 4.5 h. For the same compound, the bioavailability in “in vivo [2]” was found to be 27%.
On to `CC(C)N1CCC(Nc2cccc(Sc3ccc(/C=C/C(=O)N4CCOCC4)c(C(F)(F)F)c3C(F)(F)F)c2)CC1`, for which the half-life in the series “in vivo [1]” was 7 h. In “in vivo [2]”, the bioavailability amounted to 32%.

As a reminder, the half-life is the time needed for the level to fall by half in the phase considered. In general, bioavailability refers to the share of a dose that reaches the circulation, judged against a reference dose that is usually intravenous. In general, clearance refers to a measure of how efficiently the substance is removed, as volume per time. The low end stands for inefficient removal, the high end for efficient removal.

Source of the values: ChEMBL document CHEMBL1144201, “Design and synthesis of a series of meta aniline-based LFA-1 ICAM inhibitors” (Bioorg Med Chem Lett, 2008).
